Reference: ChEMBL document CHEMBL1201862, “PubChem BioAssay data set” (2004)
Calls of active or inactive are those of the source.

How the values were obtained:
HEK293 [1] = assay: HEK cell cytotoxicity by LDH release, dose response, cytotoxicity control for IDE activator project, fluorescence, HEK cells (AID 588440); format: functional, cell-based; details: Homo sapiens;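 also: cytotoxicity by LDH release measuring loss of membrane integrity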
Insulin-degrading enzyme [2] = target: T1, Insulin-degrading enzyme (Homo sapiens, UniProt P14735); assay: activators of endogenous IDE in HEK cells, dose response, cell-based, fluorescence polarization (AID 588439); format: functional
T1 sequence (P14735 whole entry): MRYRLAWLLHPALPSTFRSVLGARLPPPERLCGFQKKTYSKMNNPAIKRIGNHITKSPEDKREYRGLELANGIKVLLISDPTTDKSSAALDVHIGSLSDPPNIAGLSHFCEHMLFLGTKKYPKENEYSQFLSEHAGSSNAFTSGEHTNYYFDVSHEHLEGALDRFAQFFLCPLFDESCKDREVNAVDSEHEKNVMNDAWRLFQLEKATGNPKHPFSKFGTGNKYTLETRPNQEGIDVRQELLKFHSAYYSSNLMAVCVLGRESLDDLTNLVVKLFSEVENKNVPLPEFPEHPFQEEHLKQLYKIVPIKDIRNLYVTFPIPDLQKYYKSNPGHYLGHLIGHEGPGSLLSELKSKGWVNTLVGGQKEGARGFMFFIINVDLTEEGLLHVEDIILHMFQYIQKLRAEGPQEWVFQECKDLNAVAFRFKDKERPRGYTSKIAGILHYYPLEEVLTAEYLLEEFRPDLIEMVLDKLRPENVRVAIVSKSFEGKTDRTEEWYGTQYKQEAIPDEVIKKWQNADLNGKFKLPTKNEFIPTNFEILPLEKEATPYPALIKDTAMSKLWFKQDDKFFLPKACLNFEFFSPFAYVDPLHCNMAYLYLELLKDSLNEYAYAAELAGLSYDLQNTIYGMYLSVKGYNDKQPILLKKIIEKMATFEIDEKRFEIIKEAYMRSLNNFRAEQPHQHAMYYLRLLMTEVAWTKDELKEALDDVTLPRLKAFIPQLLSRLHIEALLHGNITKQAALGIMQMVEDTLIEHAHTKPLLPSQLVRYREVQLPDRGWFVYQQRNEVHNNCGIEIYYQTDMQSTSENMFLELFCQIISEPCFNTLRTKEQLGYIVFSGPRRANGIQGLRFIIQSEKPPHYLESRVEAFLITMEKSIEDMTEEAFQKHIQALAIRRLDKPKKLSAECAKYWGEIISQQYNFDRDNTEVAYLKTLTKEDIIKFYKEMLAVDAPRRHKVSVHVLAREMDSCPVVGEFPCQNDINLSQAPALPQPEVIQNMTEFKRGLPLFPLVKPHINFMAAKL

Insulin-degrading enzyme [3] = target: T1, Insulin-degrading enzyme; assay: activators of recombinant IDE enzyme, dose response, counter-screen for IDE activator project, biochemical, fluorescence polarization (AID 588681)
HEK293 [4] = assay: optical interference in Abeta FP readout, dose response, artefact control for IDE activator project, biochemical, fluorescence polarization (AID 588442); format: functional, cell-based; details: Homo sapiens
[5] = target: Apoptotic protease-activating factor 1 (Homo sapiens, UniProt O14727); format: functional
Sequence of Apoptotic protease-activating factor 1 (O14727 whole entry): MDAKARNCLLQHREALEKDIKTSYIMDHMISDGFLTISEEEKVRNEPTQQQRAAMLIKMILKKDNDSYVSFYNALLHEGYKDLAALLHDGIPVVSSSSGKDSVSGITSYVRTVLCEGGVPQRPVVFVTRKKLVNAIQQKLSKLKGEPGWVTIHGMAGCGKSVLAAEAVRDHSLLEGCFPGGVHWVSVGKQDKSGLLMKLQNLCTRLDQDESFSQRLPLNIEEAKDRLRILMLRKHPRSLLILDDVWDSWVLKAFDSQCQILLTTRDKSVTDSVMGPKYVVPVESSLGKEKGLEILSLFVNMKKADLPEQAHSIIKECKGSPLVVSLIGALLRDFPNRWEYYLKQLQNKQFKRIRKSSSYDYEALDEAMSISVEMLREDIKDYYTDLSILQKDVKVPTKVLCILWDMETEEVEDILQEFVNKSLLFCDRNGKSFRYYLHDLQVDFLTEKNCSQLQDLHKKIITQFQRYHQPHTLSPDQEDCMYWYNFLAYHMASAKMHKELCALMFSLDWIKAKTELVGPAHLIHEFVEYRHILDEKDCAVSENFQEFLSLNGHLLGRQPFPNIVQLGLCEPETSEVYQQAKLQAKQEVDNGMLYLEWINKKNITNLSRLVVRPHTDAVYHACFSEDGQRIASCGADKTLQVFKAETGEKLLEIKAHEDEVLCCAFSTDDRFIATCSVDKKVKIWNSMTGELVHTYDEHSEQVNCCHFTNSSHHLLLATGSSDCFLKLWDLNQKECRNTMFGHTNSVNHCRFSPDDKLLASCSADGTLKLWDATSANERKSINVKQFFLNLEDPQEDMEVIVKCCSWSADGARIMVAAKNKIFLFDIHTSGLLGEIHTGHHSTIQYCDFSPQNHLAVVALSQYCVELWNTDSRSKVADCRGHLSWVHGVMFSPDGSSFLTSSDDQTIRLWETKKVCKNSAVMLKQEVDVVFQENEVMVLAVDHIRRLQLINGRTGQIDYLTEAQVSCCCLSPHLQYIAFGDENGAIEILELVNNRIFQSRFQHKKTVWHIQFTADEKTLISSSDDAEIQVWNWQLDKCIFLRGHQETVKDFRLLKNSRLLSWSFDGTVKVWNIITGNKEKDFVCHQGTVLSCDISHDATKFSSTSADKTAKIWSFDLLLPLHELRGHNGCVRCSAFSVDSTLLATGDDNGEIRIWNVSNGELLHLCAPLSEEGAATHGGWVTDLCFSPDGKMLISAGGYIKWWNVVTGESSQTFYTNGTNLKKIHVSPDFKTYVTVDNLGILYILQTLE

[6] = target: T2, Sentrin-specific protease 6 (Homo sapiens, UniProt Q9GZR1); format: functional;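 also: Luminescence-based dose-response confirmatory assay of SENP6 inhibition, following up an ultra-high-throughput screen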
T2 sequence (Q9GZR1 whole entry): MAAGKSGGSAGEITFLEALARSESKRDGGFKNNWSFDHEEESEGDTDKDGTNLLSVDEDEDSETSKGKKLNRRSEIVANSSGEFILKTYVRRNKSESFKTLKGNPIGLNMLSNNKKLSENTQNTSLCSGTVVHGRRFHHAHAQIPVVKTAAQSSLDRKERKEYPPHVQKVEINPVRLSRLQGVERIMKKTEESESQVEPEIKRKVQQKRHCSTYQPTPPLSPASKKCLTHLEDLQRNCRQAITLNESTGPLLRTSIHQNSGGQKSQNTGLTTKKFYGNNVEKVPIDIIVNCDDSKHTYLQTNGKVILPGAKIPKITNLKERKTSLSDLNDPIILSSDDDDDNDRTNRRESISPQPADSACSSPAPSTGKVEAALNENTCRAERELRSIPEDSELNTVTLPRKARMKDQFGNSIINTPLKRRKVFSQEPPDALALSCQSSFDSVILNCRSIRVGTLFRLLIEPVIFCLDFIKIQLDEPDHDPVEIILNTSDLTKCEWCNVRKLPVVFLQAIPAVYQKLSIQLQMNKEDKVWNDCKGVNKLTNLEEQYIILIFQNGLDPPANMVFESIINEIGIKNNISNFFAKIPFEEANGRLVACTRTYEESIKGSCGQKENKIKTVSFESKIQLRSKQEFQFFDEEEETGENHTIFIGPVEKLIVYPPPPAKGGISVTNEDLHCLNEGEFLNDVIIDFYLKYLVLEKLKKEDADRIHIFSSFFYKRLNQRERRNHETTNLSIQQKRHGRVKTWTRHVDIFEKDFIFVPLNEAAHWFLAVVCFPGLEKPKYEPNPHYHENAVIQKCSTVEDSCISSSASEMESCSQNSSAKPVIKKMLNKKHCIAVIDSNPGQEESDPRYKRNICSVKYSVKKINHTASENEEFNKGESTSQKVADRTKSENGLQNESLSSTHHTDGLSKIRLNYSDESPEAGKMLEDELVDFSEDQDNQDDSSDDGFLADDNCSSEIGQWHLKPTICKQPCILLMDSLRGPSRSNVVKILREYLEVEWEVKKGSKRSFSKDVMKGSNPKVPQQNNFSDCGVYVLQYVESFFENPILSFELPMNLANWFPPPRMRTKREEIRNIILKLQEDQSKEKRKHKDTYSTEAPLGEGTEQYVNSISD

[7] = target: T3, Microphthalmia-associated transcription factor (Homo sapiens, UniProt O75030); assay: TRPM1 promoter luciferase signal decrease, dose response, MITF inhibitor project, cell-based, SK-MEL-5, cherry-picked, set 3 (AID 493073); format: functional
T3 sequence (O75030 whole entry): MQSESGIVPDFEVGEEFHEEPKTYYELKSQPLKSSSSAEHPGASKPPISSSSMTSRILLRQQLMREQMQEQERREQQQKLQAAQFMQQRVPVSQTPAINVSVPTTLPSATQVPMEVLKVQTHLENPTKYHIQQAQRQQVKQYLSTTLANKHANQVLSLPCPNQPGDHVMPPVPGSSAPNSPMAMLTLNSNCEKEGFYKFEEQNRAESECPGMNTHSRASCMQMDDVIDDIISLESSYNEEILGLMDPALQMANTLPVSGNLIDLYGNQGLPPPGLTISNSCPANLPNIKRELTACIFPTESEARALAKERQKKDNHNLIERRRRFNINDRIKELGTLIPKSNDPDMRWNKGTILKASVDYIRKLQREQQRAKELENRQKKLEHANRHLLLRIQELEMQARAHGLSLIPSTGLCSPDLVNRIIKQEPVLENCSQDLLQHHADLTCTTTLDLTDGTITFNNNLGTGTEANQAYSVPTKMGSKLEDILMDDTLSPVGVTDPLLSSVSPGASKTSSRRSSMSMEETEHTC

[8] = target: T4, Sentrin-specific protease 7 (Homo sapiens, UniProt Q9BQF6); format: functional;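 also: Luminescence-based dose-response confirmation of ultra-high-throughput screening hits, measuring inhibition of SENP7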
T4 sequence (Q9BQF6 whole entry): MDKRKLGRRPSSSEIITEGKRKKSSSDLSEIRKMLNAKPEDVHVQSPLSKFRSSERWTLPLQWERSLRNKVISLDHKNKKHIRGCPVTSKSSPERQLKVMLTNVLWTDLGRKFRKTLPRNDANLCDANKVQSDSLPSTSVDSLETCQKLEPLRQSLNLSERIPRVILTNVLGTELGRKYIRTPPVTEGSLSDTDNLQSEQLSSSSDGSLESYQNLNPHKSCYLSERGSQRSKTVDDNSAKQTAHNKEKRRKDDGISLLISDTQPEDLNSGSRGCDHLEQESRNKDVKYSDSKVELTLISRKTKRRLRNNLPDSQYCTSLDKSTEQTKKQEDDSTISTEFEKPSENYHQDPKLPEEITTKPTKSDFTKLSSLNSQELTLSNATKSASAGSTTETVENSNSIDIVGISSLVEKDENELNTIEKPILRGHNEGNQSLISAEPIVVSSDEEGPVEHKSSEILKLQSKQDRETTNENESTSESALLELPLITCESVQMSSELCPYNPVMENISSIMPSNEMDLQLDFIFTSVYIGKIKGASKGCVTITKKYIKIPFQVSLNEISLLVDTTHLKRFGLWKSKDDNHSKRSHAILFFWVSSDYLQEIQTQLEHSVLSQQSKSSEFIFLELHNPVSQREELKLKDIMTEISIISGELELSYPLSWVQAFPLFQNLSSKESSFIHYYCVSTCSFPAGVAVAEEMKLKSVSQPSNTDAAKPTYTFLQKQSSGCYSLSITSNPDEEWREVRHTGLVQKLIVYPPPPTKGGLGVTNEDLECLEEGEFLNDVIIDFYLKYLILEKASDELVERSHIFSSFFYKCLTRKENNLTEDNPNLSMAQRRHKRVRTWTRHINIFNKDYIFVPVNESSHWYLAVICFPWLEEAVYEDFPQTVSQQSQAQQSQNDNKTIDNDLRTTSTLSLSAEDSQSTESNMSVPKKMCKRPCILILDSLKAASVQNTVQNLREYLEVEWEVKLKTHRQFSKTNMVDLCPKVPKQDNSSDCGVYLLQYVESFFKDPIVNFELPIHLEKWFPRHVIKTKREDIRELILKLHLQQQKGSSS

Caspase-3 = target: T5, Caspase-3 (Homo sapiens, UniProt P42574); format: functional;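 also: Dose-response selectivity test against caspase-3 for candidate inhibitors of sentrin-specific proteases (SENPs)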
T5 sequence (P42574 whole entry): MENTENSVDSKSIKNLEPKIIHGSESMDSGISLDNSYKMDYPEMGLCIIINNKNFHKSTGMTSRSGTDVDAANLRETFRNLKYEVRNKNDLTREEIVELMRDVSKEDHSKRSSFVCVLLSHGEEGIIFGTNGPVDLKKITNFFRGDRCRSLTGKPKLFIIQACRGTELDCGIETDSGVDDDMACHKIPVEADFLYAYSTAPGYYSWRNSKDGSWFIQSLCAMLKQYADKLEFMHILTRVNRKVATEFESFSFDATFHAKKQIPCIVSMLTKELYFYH

[9] = target: T6, Sentrin-specific protease 8 (Homo sapiens, UniProt Q96LD8); format: functional;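 also: luminescence read-out of SENP8 inhibition, dose-response confirmation following an ultra-high-throughput screen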
T6 sequence (Q96LD8 whole entry): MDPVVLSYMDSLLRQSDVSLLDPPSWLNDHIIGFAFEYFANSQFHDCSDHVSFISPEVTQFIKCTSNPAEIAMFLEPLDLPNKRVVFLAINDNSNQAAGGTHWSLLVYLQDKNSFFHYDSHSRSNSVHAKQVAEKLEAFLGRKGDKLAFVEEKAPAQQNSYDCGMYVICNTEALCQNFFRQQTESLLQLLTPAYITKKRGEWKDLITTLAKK

Beta-lactamase [10] = target: Beta-lactamase (Pseudomonas aeruginosa, UniProt Q79MP6);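 also: biochemical dose-response test of metallo-beta-lactamase enzyme inhibition, read out by epi-absorbance; purified recombinant IMP-1 metallo-beta-lactamase with nitrocefin as substrate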
Sequence of Beta-lactamase (Pseudomonas aeruginosa, UniProt Q79MP6) (Q79MP6 whole entry): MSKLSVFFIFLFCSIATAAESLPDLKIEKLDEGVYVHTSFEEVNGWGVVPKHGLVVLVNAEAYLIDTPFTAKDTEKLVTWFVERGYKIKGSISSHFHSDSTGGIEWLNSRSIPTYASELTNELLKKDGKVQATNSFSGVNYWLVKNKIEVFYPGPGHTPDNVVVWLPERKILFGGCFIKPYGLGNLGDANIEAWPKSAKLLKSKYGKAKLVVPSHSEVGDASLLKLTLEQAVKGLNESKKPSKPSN

Beta-lactamase [11] = target: Beta-lactamase (Salmonella choleraesuis (strain SC-B67), UniProt Q5J463)
Sequence of Beta-lactamase (Salmonella choleraesuis (strain SC-B67), UniProt Q5J463) (Q5J463 whole entry): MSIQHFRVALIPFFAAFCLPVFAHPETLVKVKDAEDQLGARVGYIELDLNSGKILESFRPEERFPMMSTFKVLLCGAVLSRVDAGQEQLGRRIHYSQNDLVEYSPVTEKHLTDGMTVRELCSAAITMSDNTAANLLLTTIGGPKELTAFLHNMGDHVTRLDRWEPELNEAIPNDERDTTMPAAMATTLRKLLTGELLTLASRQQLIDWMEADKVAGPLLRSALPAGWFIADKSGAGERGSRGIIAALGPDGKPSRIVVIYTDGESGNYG

[12] = enhancers of respiration in Yfh1-depleted yeast, dose response, Friedreich's ataxia, plus single-dose screen (AID 1465); format: functional;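 also: yeast depleted of Yfh1p frataxin homolog grown on glycerol needing respiration; WST-1 tetrazolium dye reduction as measure of cellular dehydrogenase metabolic activity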
[13] = target: T7, Calpain-2 catalytic subunit (Sus scrofa, UniProt P43367); assay: pig calpain II inhibitor potency, dose response, biochemical, fluorogenic peptide substrate (AID 1420); format: functional
T7 sequence (P43367 whole entry): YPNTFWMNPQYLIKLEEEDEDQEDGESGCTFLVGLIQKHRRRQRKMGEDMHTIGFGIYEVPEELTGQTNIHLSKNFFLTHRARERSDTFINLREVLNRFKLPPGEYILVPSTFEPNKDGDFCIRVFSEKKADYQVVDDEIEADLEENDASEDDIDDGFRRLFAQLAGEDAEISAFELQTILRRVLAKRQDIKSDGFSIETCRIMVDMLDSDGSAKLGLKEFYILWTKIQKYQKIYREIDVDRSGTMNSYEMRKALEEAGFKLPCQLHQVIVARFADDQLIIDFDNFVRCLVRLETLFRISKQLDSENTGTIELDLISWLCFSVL

[14] = target: G-protein coupled receptor 35 (Homo sapiens, UniProt Q9HC97); assay: GPR35 antagonists blocking zaprinast-driven arrestin recruitment, primary screen, imaging, U2OS, beta-arrestin-GFP, zaprinast agonist (AID 2058); format: functional;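 also: antagonist potency meaning inhibition of agonist-induced arrestin redistribution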
Sequence of G-protein coupled receptor 35 (Q9HC97 whole entry): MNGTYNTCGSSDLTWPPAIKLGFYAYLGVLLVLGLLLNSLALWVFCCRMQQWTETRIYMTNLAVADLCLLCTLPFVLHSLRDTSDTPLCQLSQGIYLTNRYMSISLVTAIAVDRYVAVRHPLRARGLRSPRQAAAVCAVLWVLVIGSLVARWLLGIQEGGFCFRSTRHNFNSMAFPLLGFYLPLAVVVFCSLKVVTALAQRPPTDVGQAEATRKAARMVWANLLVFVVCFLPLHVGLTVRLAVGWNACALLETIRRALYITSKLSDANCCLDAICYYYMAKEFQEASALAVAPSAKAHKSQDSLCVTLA

Aurora kinase A = target: T8, Aurora kinase A (Homo sapiens, UniProt O14965); format: functional;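 also: value from the Navigating the Kinome kinase panel profiling, panel entry STK6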
T8 sequence (O14965 whole entry): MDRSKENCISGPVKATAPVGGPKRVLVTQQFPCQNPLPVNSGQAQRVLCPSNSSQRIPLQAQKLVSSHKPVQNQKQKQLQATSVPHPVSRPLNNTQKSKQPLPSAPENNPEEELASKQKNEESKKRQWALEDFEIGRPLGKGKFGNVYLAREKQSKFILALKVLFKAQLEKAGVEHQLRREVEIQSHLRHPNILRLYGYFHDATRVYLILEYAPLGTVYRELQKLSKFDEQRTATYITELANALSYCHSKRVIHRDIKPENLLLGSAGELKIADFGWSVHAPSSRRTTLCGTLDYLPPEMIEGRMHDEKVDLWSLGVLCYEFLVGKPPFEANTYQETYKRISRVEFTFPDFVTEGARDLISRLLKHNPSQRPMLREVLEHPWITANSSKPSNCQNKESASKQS

Aurora kinase B = Aurora kinase B (Homo sapiens, UniProt Q96GD4); format: functional
Sequence of Aurora kinase B (Q96GD4 whole entry): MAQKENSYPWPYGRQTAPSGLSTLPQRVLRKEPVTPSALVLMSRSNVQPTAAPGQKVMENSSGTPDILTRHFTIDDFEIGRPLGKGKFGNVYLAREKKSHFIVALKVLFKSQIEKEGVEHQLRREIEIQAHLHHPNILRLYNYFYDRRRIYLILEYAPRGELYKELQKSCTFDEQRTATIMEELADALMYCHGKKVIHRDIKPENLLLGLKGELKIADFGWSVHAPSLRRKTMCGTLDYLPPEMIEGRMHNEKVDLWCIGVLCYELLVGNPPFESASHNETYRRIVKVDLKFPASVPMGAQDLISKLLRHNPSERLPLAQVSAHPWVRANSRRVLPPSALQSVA

[15] = target: ALK tyrosine kinase receptor (Homo sapiens, UniProt Q9UM73); format: functional;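 also: ALK tested as one member of a kinase panel screen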
Sequence of ALK tyrosine kinase receptor (Q9UM73 whole entry): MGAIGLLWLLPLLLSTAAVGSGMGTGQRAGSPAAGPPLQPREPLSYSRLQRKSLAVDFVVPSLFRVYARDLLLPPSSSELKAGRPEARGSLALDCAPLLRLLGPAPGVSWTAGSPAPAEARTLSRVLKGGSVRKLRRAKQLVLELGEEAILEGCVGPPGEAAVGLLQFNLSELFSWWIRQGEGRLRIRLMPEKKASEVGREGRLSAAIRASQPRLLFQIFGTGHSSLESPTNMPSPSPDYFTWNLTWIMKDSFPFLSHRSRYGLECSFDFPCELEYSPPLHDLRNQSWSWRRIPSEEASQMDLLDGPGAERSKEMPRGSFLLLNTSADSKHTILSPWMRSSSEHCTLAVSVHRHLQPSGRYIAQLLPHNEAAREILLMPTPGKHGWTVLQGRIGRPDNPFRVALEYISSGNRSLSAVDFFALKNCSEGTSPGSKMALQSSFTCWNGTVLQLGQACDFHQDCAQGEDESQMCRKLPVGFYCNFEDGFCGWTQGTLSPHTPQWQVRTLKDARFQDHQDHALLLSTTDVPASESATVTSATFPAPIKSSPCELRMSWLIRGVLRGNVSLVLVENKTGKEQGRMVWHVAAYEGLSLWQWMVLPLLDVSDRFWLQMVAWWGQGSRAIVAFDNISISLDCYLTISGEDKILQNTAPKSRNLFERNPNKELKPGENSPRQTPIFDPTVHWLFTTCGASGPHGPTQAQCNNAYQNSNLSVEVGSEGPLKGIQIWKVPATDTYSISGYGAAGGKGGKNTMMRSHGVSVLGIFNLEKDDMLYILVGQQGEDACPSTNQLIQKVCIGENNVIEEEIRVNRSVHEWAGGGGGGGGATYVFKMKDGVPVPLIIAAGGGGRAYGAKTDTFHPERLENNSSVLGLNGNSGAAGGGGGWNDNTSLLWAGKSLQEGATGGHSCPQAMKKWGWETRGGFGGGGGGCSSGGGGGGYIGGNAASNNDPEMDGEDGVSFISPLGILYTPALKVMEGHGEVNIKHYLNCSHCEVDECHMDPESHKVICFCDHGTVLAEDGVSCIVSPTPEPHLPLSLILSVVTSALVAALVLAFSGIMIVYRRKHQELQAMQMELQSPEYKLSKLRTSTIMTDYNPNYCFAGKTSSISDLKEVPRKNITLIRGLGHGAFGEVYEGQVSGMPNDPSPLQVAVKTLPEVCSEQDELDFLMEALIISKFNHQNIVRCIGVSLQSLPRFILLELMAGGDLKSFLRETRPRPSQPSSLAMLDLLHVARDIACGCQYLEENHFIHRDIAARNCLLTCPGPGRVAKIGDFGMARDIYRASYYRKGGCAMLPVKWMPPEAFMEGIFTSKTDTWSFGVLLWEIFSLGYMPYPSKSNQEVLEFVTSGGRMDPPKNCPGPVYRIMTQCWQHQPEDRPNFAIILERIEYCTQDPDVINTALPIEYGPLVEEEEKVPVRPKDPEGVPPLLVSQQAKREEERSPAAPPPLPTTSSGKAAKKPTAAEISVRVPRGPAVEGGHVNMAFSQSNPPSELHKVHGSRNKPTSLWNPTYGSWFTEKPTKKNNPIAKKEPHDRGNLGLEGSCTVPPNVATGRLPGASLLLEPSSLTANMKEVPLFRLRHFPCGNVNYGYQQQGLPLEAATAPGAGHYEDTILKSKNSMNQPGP

For `CC(=O)N1CCc2cc(S(=O)(=O)NCCC(=O)N3CCN(Cc4ccccc4)CC3)ccc21`, the IC50 (HEK293 [1]) was > 89.2 µM (inactive), the EC50 (Insulin-degrading enzyme [2]) was > 54.7 µM (inactive) and the EC50 (Insulin-degrading enzyme [3]) was > 54.7 µM (inactive). For the same compound, the EC50 (HEK293 [4]) was > 54.7 µM (inactive).

For `CC(=O)NC1=C(N(C)C2CCS(=O)(=O)C2)C(=O)c2ccccc2C1=O` (configuration not stated), the IC50 [5] was 22 µM (active), the IC50 [6] was 5.25 µM (active) and the AC50 [7] was 21.2 µM (active). The IC50 [8] was 13 µM (active), the IC50 (Caspase-3) was 17 µM (active) and the IC50 [9] was 13.4 µM (active).

With `CCN1CCN(C2=CC3=CC(=C(C#N)C#N)CCC3CC2)CC1` (configuration not stated) the IC50 (HEK293 [1]) was > 89.2 µM (inactive), the EC50 (Insulin-degrading enzyme [2]) was > 54.7 µM (inactive) and the IC50 (Beta-lactamase [10]) was 4.22 µM (active). The EC50 (Insulin-degrading enzyme [3]) was > 54.7 µM (inactive), the IC50 (Beta-lactamase [11]) was 3.08 µM (active) and the EC50 (HEK293 [4]) was > 54.7 µM (inactive). For the same compound, the EC50 [12] was > 100 µM (active), the IC50 [13] was 30.6 µM (not active) and the IC50 [14] was 1.67 µM (active).

For `NC1CCN(C(=O)c2ccc3c(c2)[nH]c(=O)c2cccn23)CC1`, the Ki (Aurora kinase A) was > 2 µM (inactive), the Ki (Aurora kinase B) was 0.158 µM (active) and the Ki [15] was > 3.16 µM (inactive).
